IC50 data for 34 compounds are collected here from US20080004276A1, “Method for treating non-hodgkin's lymphoma” (priority 2006, published 2008).

This experiment concerns Her2. The experiment can be described thus: IC50 range for inhibition of Her2 degradation (Table 8). Type of experiment: cell-based. The following applies: Homo sapiens. How it is done:
Human high-Her2 breast carcinoma BT474 (HTB-20), SK-BR-3 (HTB-30) and MCF-7 breast carcinoma (HTB-22) from American Type Culture Collection, VA, USA were grown in Dulbecco's modified Eagle's medium with 4 mM L-glutamine and antibiotics (100 IU/ml penicillin and 100 ug/ml streptomycine; GibcoBRL). To obtain exponential cell growth, cells were trypsinized, counted and seeded at a cell density of 0.5×10^6 cells/ml regularly, every 3 days. All experiments were performed on day 1 after cell passage. […]
After treatment with a compound of the invention, cells were washed twice with 1×PBS/1% FBS, and then stained with anti-Her2-FITC (#340553, BD) for 30 min at 4° C. Cells were then washed three times in FACS buffer before the fixation in 0.5 ml 1% paraformadehydrede. Data was acquired on a FACSCalibur system. Isotype-matched controls were used to establish the non-specific staining of samples and to set the fluorescent markers. A total 10,000 events were recorded from each sample. Data were analysed by using CellQuest software (BD Biosciences).

Molecules are shown by their SMILES.

On to `COCCOc1ccc(-n2c(S)nnc2-c2ccc(O)cc2O)c2ccccc12` [Compound 2, 3-(2,4-Dihydroxyphenyl)-4-[4-(2-methoxyethoxy)-naphthalen-1-yl]-5-mercapto-triazole], for which the IC50 fell in the range of 3 to 10 µM.

Compound `CCOc1ccc2c(-n3c(S)nnc3-c3ccc(O)cc3O)cccc2c1` [Compound 6] came in with an IC50 of 3 to 10 µM.

In the case of `CCCOc1ccc2c(-n3c(S)nnc3-c3ccc(O)cc3O)cccc2c1` [Compound 7], the concentration for half-maximal inhibition (IC50) was in the range of 3 to 10 µM.

`CCc1cc(-c2nnc(S)n2-c2cccc3c(OC)cccc23)c(O)cc1O` [Compound 8, 3-(2,4-Dihydroxy-5-ethyl-phenyl)-4-(5-methoxy-naphthalen-1-yl)-5-mercapto-triazole] gave an IC50 below 3 µM.

With `CC(C)Oc1ccc2c(-n3c(S)nnc3-c3ccc(O)cc3O)cccc2c1` [Compound 9], the half-maximal inhibitory concentration (IC50) was in the range of 3 to 10 µM.

In the case of `CCn1ccc2c(-n3c(S)nnc3-c3ccc(O)cc3O)cccc21` [Compound 13, 3-(2,4-Dihydroxyphenyl)-4-(1-ethyl-indol-4-yl)-5-mercapto-triazole], the 50% inhibitory concentration (IC50) was below 3 µM.

`Oc1ccc(-c2nnc(S)n2-c2cccc3c2OCCO3)c(O)c1` [Compound 14, 3-(2,4-Dihydroxyphenyl)-4-(2,3-dihydro-benzo[1,4]dioxin-5-yl)-5-mercapto-triazole] gave an IC50 of 3 to 10 µM.

Turning to `COc1cccc(-n2c(S)nnc2-c2ccc(O)cc2O)c1` [Compound 21, 3-(2,4-Dihydroxyphenyl)-4-(3-methoxyphenyl)-5-mercapto-triazole], the IC50 lay in the range of 10 to 100 µM.

`COc1ccc(-n2c(S)nnc2-c2ccc(O)cc2O)cc1` [Compound 22, 3-(2,4-Dihydroxyphenyl)-4-(4-methoxyphenyl)-5-mercapto-triazole] gave a 50% inhibitory concentration (IC50) of 10 to 100 µM.

In the case of `Cc1ccc(-n2c(S)nnc2-c2ccc(O)cc2O)c(C)c1` [Compound 28, 3-(2,4-Dihydroxyphenyl)-4-(2,4-dimethyl-phenyl)-5-mercapto-triazole], the IC50 is 3 to 10 µM.

In the case of `Cc1cc(C)cc(-n2c(S)nnc2-c2ccc(O)cc2O)c1` [Compound 30], the IC50 was in the range of 10 to 100 µM.

As for `Cc1cccc(-n2c(S)nnc2-c2ccc(O)cc2O)c1C` [Compound 34, 3-(2,4-Dihydroxyphenyl)-4-(2,3-dimethylphenyl)-5-mercapto-triazole], the IC50 was 3 to 10 µM.

`Oc1ccc(-c2nnc(S)n2-c2ccc3c4c(cccc24)CC3)c(O)c1` [Compound 36, 3-(2,4-Dihydroxyphenyl)-4-(acenaphthalen-5-yl)-5-mercapto-triazole]: the IC50 lay in the range of 3 to 10 µM.

Turning to `Oc1ccc(-c2nnc(S)n2-c2cccc(Cl)c2Cl)c(O)c1` [Compound 38, 3-(2,4-Dihydroxyphenyl)-4-(2,3-dichlorophenyl)-5-mercapto-triazole], the IC50 was in the range of 3 to 10 µM.

The compound `COc1cccc2c(-n3c(S)nnc3-c3ccc(O)cc3O)cccc12` [Compound 39, 3-(2,4-Dihydroxyphenyl)-4-(5-methoxynaphthalen-1-yl)-5-mercapto-triazole] gave an IC50 below 3 µM.

Compound `Oc1ccc(-c2nnc(S)n2-c2cccc3c2CCCC3)c(O)c1` [Compound 42, 3-(2,4-Dihydroxyphenyl)-4-(1,2,3,4-tetrahydronaphthalen-5-yl)-5-mercapto-triazole] came in with an IC50 of 3 to 10 µM.

For the compound `Oc1ccc(-c2nnc(S)n2-c2ccc(Cl)c3ccccc23)c(O)c1` [Compound 48, 3-(2,4-Dihydroxyphenyl)-4-(4-chloronaphthalen-1-yl)-5-mercapto-triazole], the concentration for half-maximal inhibition (IC50) was 3 to 10 µM.

`Cc1cc(-n2c(S)nnc2-c2ccc(O)cc2O)c2ccccc2n1` [Compound 51, 3-(2,4-Dihydroxyphenyl)-4-(2-methyl-quinolin-4-yl)-5-mercapto-triazole] gave a 50% inhibitory concentration (IC50) of 10 to 100 µM.

As for `CCn1cc(-c2nnc(S)n2-c2cccc3ccccc23)c(O)cc1=O` [Compound 59, 3-(1-ethyl-4-hydroxy-6-oxo-1,6-dihydro-pyridin-3-yl)-4-(naphthalen-1-yl)-5-mercapto-triazole], the 50% inhibitory concentration (IC50) fell in the range of 10 to 100 µM.

As for `Cn1cc(-c2nnc(S)n2-c2cccc3ccccc23)c(O)cc1=O` [Compound 60], the IC50 fell in the range of 10 to 100 µM.

`CC(C)(C)c1cc(-n2c(S)nnc2-c2ccc(O)cc2O)cc(C(C)(C)C)c1` [Compound 61, 3-(2,4-Dihydroxy-phenyl)-4-(3,5-di-tert-butylphenyl)-5-mercapto-triazole] returned a half-inhibitory concentration (IC50) of 10 to 100 µM.

`Oc1nc(O)c(-c2nnc(S)n2-c2cccc3ccccc23)cc1F` [Compound 62, 3-(2,6-Dihydroxy5-fluoro-pyridin-3-yl) 4-(naphthalen-1-yl)-5-mercapto-triazole] gave a concentration for half-maximal inhibition (IC50) of 10 to 100 µM.

Compound `Cc1cc(-c2nnc(S)n2-c2cccc3ccccc23)c(O)cc1O` [Compound 63, 3-(2,4-Dihydroxy-5-methyl-phenyl)-4-(naphthalene-1-yl)-5-mercapto-triazole] had an IC50 below 3 µM.

The compound `O=C(c1ccccc1)c1cccc(-n2c(S)nnc2-c2ccc(O)cc2O)c1` [Compound 64, 3-[2,4-Dihydroxy-phenyl]-4-(3-benzoylphenyl)-5-mercapto-triazole] registered a 50% inhibitory concentration (IC50) of 3 to 10 µM.

`Oc1ccc(-c2nnc(S)n2-c2cccc3cnccc23)c(O)c1` [Compound 70, 3-(2,4-Dihydroxy-phenyl)-4-(isoquinolin-5-yl)-5-mercapto-triazole]: the half-inhibitory concentration (IC50) was 3 to 10 µM.

As for `CCc1cc(-c2nnc(S)n2-c2ccc(OC)c3ccccc23)c(O)cc1O` [Compound 76, 3-(2,4-Dihydroxy-5-ethyl-phenyl)-4-(4-methoxy-naphthalen-1-yl)-5-mercapto-triazole], the concentration for half-maximal inhibition (IC50) is below 3 µM.

For `CCc1cc(-c2nnc(S)n2-c2cccc3cc(OC)ccc23)c(O)cc1O` [Compound 77, 3-(2,4-Dihydroxy-5-ethyl-phenyl)-4-(6-methoxy-naphthalin-1-yl)-5-mercapto-triazole], the IC50 is below 3 µM.

Compound `CCc1cc(-c2nnc(S)n2-c2ccc(OC)c(C)c2C)c(O)cc1O` [Compound 79, 3-(2,4-Dihydroxy-5-ethyl-phenyl)-4-(2,3-dimethy-4-methoxy-phenyl)-5-mercapto-triazole] came in with a half-maximal inhibitory concentration (IC50) below 3 µM.

For the compound `Oc1ccc(-c2nnc(S)n2-c2ccc(O)c3ccccc23)c(O)c1` [Compound 87, 3-(2,4-Dihydroxyphenyl)-4-(4-hydroxy-naphthalen-1-yl)-5-mercapto-triazole], the IC50 was below 3 µM.

As to `CC(C)n1ccc2c(-n3c(S)nnc3-c3ccc(O)cc3O)cccc21` [Compound 88, 3-(2,4-Dihydroxyphenyl)-4-(1-isopropyl-indol-4-yl)-5-mercapto-triazole], the concentration for half-maximal inhibition (IC50) is below 3 µM.

The compound `COc1cccc(-n2c(S)nnc2-c2ccc(O)cc2O)c1OC` [Compound 93, 3-(2,4-Dihydroxy-phenyl)-4-(2,3-dimethoxy-phenyl)-5-mercapto-triazole] gave a 50% inhibitory concentration (IC50) of 3 to 10 µM.

`Oc1ccc(-c2nnc(S)n2-c2cccc3[nH]ccc23)c(O)c1` [Compound 95, 3-(2,4-Dihydroxy-phenyl)-4-(indol-4-yl)-5-mercapto-triazole] displayed a half-maximal inhibitory concentration (IC50) below 3 µM.

Consider `COCCn1ccc2c(-n3c(S)nnc3-c3ccc(O)cc3O)cccc21` [Compound 96], for which the IC50 was below 3 µM.

The compound `[O-][n+]1ccc(-c2nnc(S)n2-c2cccc3ccccc23)c(O)c1` [Compound 98, 3-(1-Oxo-3-hydroxy-pyridin-4-yl)-4-(naphthalen-1-yl)-5-mercapto-triazole] showed a half-inhibitory concentration (IC50) of 10 to 100 µM.

Usually IC50 stands for the concentration needed to halve the response being measured. Low readings indicate greater potency in that assay, high ones weaker potency in that assay.
